Active and inactive are the calls of the source.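 How the source made its calls: active means EC50 at or below a set limit, with no effect in the paired counter-screen assay; inactive means the rest.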
The molecules below were run against Aedes aegypti neuropeptide Y-like receptor 7 (NPYLR7) (assay: NPYLR7 activation potency in cells – cell-based, Aedes aegypti, hit validation, mosquito biting behavior, confirmation (AID 1259427;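 further: potency of agonists that activate the receptor and raise the calcium signal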)). Details: HEK293T NPYLR7/Galpha15/GCaMP6s, calcium fluorescence.

Row | SMILES | EC50
1 | COc1ccc(Cl)cc1NC(=O)/C(C#N)=C/c1coc2ccc(C)cc2c1=O | > 20 µM (inactive)
2 | CCOC(=O)c1cc(O)c(C(=O)OCC)s1 | > 20 µM (inactive)
3 | Cc1ccc(N2C(=O)NC(=O)/C(=C\c3cccs3)C2=O)cc1 | > 20 µM (inactive)
4 | Cc1ccc2c(c1)CCCN2CC(=O)N(CCC(N)=O)c1ccccc1 | > 20 µM (inactive)
5 | CC(=O)Nc1nc(COC(=O)c2[nH]c(C)c(C(=O)OC(C)C)c2C)cs1 | > 20 µM (inactive)
6 | CCc1nn(C(C)C(=O)NC(C)CCc2ccco2)c(=O)c2cc3occc3n12 (stereo unspecified) | inactive
7 | O=C(Nc1cccc(-c2nnco2)c1)C1CCCCC1 | > 20 µM (inactive)
8 | C[n+]1c2cc(N)ccc2cc2ccc(N)cc21 | < 0.039 µM (inactive)
9 | Cc1oc(-c2cccc(NC(=O)CC(C)C)c2)nc1CNC(=O)Cc1cc(F)cc(F)c1 | > 20 µM (inactive)
10 | CCN1CC=C2C(C#N)C(=N)C(C#N)(C#N)C(c3cccs3)C2C1 (stereo unspecified) | > 20 µM (inactive)
11 | COc1ccc(-c2cnn(CCC(N)=O)c2)c(C)c1 | > 20 µM (inactive)
12 | COc1ccc(CC2c3cc(OC)c(OC)cc3CC[N+]2(C)CCC(=O)OCCCCCOC(=O)CC[N+]2(C)CCc3cc(OC)c(OC)cc3C2Cc2ccc(OC)c(OC)c2)cc1OC (stereo unspecified) | 3.55 µM
13 | COC(=O)C(C)Sc1nc2sc3c(c2c(=O)n1C)CCC3 (stereo unspecified) | > 20 µM (inactive)
14 | Cc1cccc(N2C(=O)NC(=O)/C(=C/c3cn(C)c4ccccc34)C2=O)c1 | > 20 µM (inactive)
15 | COc1ccc(S(=O)(=O)NCC2CCCN(C(=O)CSc3ccccc3)C2)cc1 (stereo unspecified) | 11.3 µM
16 | CC1(C)CC(c2[nH]cnc2-c2ccccc2)CCO1 (stereo unspecified) | > 20 µM (inactive)
17 | CC(=O)NCCc1ccc(O)c(O)c1 | inactive
18 | C=C(C)Cn1c(C(=O)N2CCN(C(=O)CCC(=O)OCC)C(C)C2)cc2ccoc21 (stereo unspecified) | 6.05 µM
19 | COc1ccc(N2CCN(c3cc(C(F)(F)F)nc(SCc4cccc(C(=O)NCc5ccccn5)c4)n3)CC2)cc1 | > 20 µM (inactive)
20 | COc1ccccc1N=c1oc2cc(O)ccc2cc1-c1nc2ccccc2[nH]1 | inactive
21 | CC(C)C(=O)Nc1sc2c(c1-c1nc3ccccc3s1)CCN(C)C2 | > 20 µM (inactive)
22 | COc1cc(NC(=O)N2CC(=O)N3CCc4c(F)cccc4C3C2)cc(OC)c1OC (stereo unspecified) | > 20 µM (inactive)
23 | CC(C)NCC(O)c1ccc(O)c(O)c1 (stereo unspecified) | > 20 µM (inactive)
24 | CCN1CCc2c(sc(NC(=O)COc3ccccc3)c2-c2nc3ccccc3s2)C1 | > 20 µM (inactive)
25 | O=C1OC2(c3cc(Br)c(O)cc3Oc3c2cc(Br)c(O)[c]3[Hg])c2ccccc21 (stereo unspecified) | < 0.039 µM (inactive)
26 | CS(=O)(=O)c1ccc(-c2cccc3c2OC(CNC(=O)c2cc[n+]([O-])cc2)C3)cc1 (stereo unspecified) | 17.1 µM

Row | SMILES | EC50
27 | O=C1c2ccccc2-c2nn(CN3CCN(c4ccccc4)CC3)c3cccc1c23 | > 20 µM (inactive)
28 | CN1C(=CC=C2C(=O)Oc3ccccc3C2=O)C(C)(C)c2ccccc21 | inactive
29 | C=CCN1C=CC(=CC=C(C#N)C#N)C=C1 | inactive
30 | COc1cc(C(=O)N2CCOC(c3ccccc3)C2)cc(OC)c1C (stereo unspecified) | > 20 µM (inactive)
31 | O=C(CC(c1cccc([N+](=O)[O-])c1)c1c[nH]c2ccccc12)NC1CC1 (stereo unspecified) | > 20 µM (inactive)
32 | CCN=c1cc2oc3cc(NCC)c(C)cc3c(-c3ccccc3C(=O)OCC)c-2cc1C | inactive
33 | FC(F)(F)c1cc(-c2cccs2)nc2ncnn12 | > 20 µM (inactive)
34 | O=C(c1cnn(-c2ccccc2)n1)N1CCCC(COCc2ccccc2)C1 (stereo unspecified) | inactive
35 | C=CCN1C(=O)/C(=C\c2ccc(O)cc2)SC1=S | > 20 µM (inactive)
36 | O=C1C(=Cc2ccccc2O)NC(=S)N1Cc1ccco1 | inactive
37 | CC(C)(C)NCC(O)c1ccc(O)c(CO)c1 (stereo unspecified) | > 20 µM (inactive)
38 | Cc1nc2ncccc2cc1C(=O)N1CCC2(CCNC(=O)CC2)CC1 | > 20 µM (inactive)
39 | O=C1SC(Nc2ccc(Br)cc2)C(=O)N1c1ccccc1 (stereo unspecified) | > 20 µM (inactive)
40 | CC1CCCCC1OCCNC(=O)C1(c2ccc(F)cc2)CCC1 (stereo unspecified) | > 20 µM (inactive)
41 | Cc1ccc(C2=NN(C(=O)CN3CCN(C)CC3)C(c3ccccc3Cl)C2)cc1 (stereo unspecified) | > 20 µM (inactive)
42 | O=C1c2cccc3c(NCCO)ccc(c23)C(=O)N1CCO | < 0.039 µM (inactive)
43 | CCCC[n+]1c(C)cc(C=C2Sc3ccccc3N2C)cc1C | > 20 µM (inactive)
44 | COc1ccccc1Oc1nc2ccccn2c(=O)c1/C=C(\C#N)c1nc2ccccc2s1 | > 20 µM (inactive)
45 | O=C1NC(=O)C2=Cc3ccc(O)cc3OC2(O)N1 (stereo unspecified) | inactive
46 | CNC[C@@H](O)c1ccc(O)c(O)c1 | > 20 µM (inactive)
47 | COc1ccccc1CCNC(=O)c1ccc(Cn2c(C)nc3ccccc32)o1 | > 20 µM (inactive)
48 | Clc1ccc(-c2noc3c2CN(CCn2cc(Cl)cn2)CC3)cc1 | > 20 µM (inactive)
49 | O=P1(Nc2cc(C(F)(F)F)ccc2Cl)C=C(c2ccccc2)OC(c2ccccc2)=C1 | > 20 µM (inactive)
50 | O=[N+]([O-])c1ccc(-n2nc3ccc4nonc4c3n2)cc1 | > 20 µM (inactive)
51 | O=C(O)CCN1C(=O)/C(=C/c2ccc(O)cc2)SC1=S | inactive
52 | CC1C(=O)N(c2cccc(F)c2)CCN1C(=O)C1CC1 (stereo unspecified) | > 20 µM (inactive)

Row | SMILES | EC50
53 | CC1CN(c2ccc(/C=C(\C#N)c3nc4ccccc4[nH]3)o2)CC(C)O1 (stereo unspecified) | > 20 µM (inactive)
54 | Cc1cc(O)c(CN2CCN(C)CC2)c2c1C(=O)/C(=C/c1cccs1)O2 | > 20 µM (inactive)
55 | O=C1NC(=NS(=O)(=O)c2ccccc2)SC1=Cc1cc([N+](=O)[O-])ccc1O | > 20 µM (inactive)
56 | CC(=O)Oc1ccc(Cn2c(C)c(C(=O)NCc3ccc(C#N)cc3)sc2=O)cc1 | > 20 µM (inactive)
57 | CCOc1cccc(C=C2Oc3cc(O)ccc3C2=O)c1OC | > 20 µM (inactive)
58 | O=C1OC(c2ccc(Cl)c([N+](=O)[O-])c2)=N/C1=C\c1cc2cc3c4c(c2oc1=O)CCCN4CCC3 | < 0.039 µM (inactive)
59 | CCCCC(CC)CN=C(N)NC(N)=NCCCCCCN=C(N)NC(N)=NCC(CC)CCCC (stereo unspecified) | 17.3 µM
60 | COc1ccc2c(c1)OCC(C=C(C#N)S(=O)(=O)c1ccc(Br)cc1)=C2 | > 20 µM (inactive)
61 | COC(=O)c1cc(N)c(/C=C/c2cccs2)s1 | inactive
62 | Cc1cc(C)c2cc3c(cc2n1)CCN3CC(O)CO (stereo unspecified) | inactive
63 | CC1=CC(C)C(C(=O)O)C(C(=O)O)C1 (stereo unspecified) | > 20 µM (inactive)
64 | Cc1nc(=O)c(-c2ccccc2)c(C)n1-c1ccccc1O | > 20 µM (inactive)
65 | CCOc1cc(/C=C(\C#N)c2nc3ncc(Br)cc3[nH]2)ccc1O | inactive
66 | Cc1cccc(C2=N/C(=C\c3cc4cc5c6c(c4oc3=O)CCCN6CCC5)C(=O)O2)c1 | inactive
67 | Cc1csc(-c2cc3ccc(O)c(CN4CCN(CCO)CC4)c3oc2=O)n1 | < 0.039 µM (inactive)
68 | Cc1cc2c(c(-c3ccc4c(cnn4C)c3)c1)OC(CN)C2 (stereo unspecified) | > 20 µM (inactive)
69 | CCOCCCN1C(=O)C(=Cc2ccccc2O)NC1=S | inactive
70 | O=C1/C(=C/c2cc3ccccc3o2)Oc2cc(O)ccc21 | > 20 µM (inactive)
71 | C#CCN1C(=O)SC(=Cc2ccc(N3CCCCC3)o2)C1=O | inactive
72 | COc1cc(C=C(C#N)S(=O)(=O)c2cc(Br)ccc2Br)ccc1O | > 20 µM (inactive)
73 | Cc1[nH]c(/C=C2\C(=O)Nc3ccccc32)c(C)c1CCC(=O)O | < 0.039 µM (inactive)
74 | CSCCC(C(=O)O)N1C(=O)/C(=C/c2ccc(O)cc2)SC1=S (stereo unspecified) | > 20 µM (inactive)
75 | CN=c1nc(-c2ccccc2)n(-c2ccccc2)s1 | 19.9 µM
76 | COc1ccc(NC[C@@H]2C=C(C)[C@H](Cc3nnc(C)o3)C[C@H]2C(C)C)cn1 | > 20 µM (inactive)
77 | CCN1C(=Cc2cc(C)[n+](C3CCCCC3)c(C)c2)Sc2ccccc21 | > 20 µM (inactive)
78 | CCN1/C(=C/C2=CC(=O)CC(C)(C)C2)Sc2ccccc21 | inactive

Row | SMILES | EC50
79 | COCCCNCc1c(-c2ccc(F)cc2)noc1N1CCOCC1 | > 20 µM (inactive)
80 | CCOc1cc(C=O)c(O)c(C=O)c1 | inactive
81 | CCOc1cc(/C=C2\SC(=S)N(NC(=O)c3ccccc3O)C2=O)ccc1O | > 20 µM (inactive)
82 | CCC(CO)[n+]1c(C)cc(C=C2Sc3ccccc3N2CC)cc1C (stereo unspecified) | inactive
83 | CCOC(=O)C1CCCN(CC(=O)N2N=C(c3ccccc3Cl)CC2c2ccc(Cl)cc2)C1 (stereo unspecified) | > 20 µM (inactive)
84 | O=C(O)c1[nH]ncc1CN1CCc2onc(-c3ccc(C(F)(F)F)cc3)c2C1 | > 20 µM (inactive)
85 | Nc1ccc2c3c(cccc13)C(=O)N(c1ccccc1)C2=O | inactive
86 | CCOC=C(C#N)c1nc(C)cs1 | inactive
87 | O=C(c1nccc2ccccc12)N1CCN(CC2CCCC2)CC1 | > 20 µM (inactive)
88 | CCN(CC)C1=CC2=CC(=C(C#N)C#N)CCC2CC1 (stereo unspecified) | < 0.039 µM (inactive)
89 | COc1ccc(OC)c(CCNc2nc3cnc(-c4ccc(Cl)cc4)cc3n2C)c1 | 19.5 µM
90 | CNC(=O)NC(=O)CCN1CC(c2ccccc2Cl)c2c([nH]c3ccccc23)C1C (stereo unspecified) | > 20 µM (inactive)
91 | CCOc1cc(/C=C2\C(=N)N3N=CSC3=NC2=O)cc(Br)c1OC(=O)c1ccccc1 | inactive
92 | N#CC(C#N)=C1C=C2C=C(N3CCN(Cc4ccccc4)CC3)CCC2CC1 (stereo unspecified) | > 20 µM (inactive)
93 | CCOc1cc(/C=C2/Oc3cc(O)ccc3C2=O)cc(Cl)c1OCC(=O)N(C)C | 16.6 µM
94 | O=C(N=Nc1c(O)[nH]c2ccc(Br)cc12)c1ccccc1Cl | > 20 µM (inactive)
95 | CCCn1c2c(c(=O)n(C)c1=O)C(=O)C(=Cc1ccc(N(C)C)cc1)N2 | inactive
96 | COc1cccc(CNC2CC2)c1OCc1nc(CO)cs1 | > 20 µM (inactive)
97 | NS(=O)(=O)c1ccc(NC(NC(=O)c2ccco2)C(=O)c2ccc(Cl)cc2)cc1 (stereo unspecified) | > 20 µM (inactive)
98 | CCN(CC)c1ccc2c(-c3ccccc3C(=O)O)c3ccc(=[N+](CC)CC)cc-3oc2c1 | inactive
99 | N#Cc1c(N)nc2c(c1N)C(Sc1ccccc1)c1ccc(O)cc1O2 (stereo unspecified) | < 0.039 µM (inactive)
100 | NC(=NCCCCCCN=C(N)N=C(N)Nc1ccc(Cl)cc1)N=C(N)Nc1ccc(Cl)cc1 | 2.66 µM
101 | Nc1ccc2c3c(cccc13)C(=O)NC2=O | inactive
